Measured values reported in US20240199676A1, “ANTIVIRAL COMPOUNDS AND METHODS OF MAKING AND USING THE SAME” (Gilead Sciences, Inc., priority 2022, published 2024).
Read-outs that look alike come from different tables or passages of the source.

Legend:
[1] = system: Respiratory syncytial virus recombinant with luciferase (RSV-Luc5) in HEp-2 cells; assay: HEp-2 RSV-Luc5 384-well Assay (EC50 RSVFLUC Hep2-384 v2, Ex. V); type: cell-based; details: human respiratory syncytial virus, HEp-2, 72 h, read-out: EC50 RSV FLuc Hep-2 384 V2 (per Ex. V)
Description: Example V: HEp-2 RSV-Luc5 384-well Assay (EC50 RSVFLUC Hep2-384 v2)
HEp-2 cell line was purchased from ATCC (Manassas, VA Cat #CCL-23) and maintained in Dulbecco's […] (DMEM) (Corning, New York, NY, Cat #15-018CM) supplemented with 10% fetal bovine serum (FBS) (Hyclone, Logan, UT, Cat #SH30071-03) and 1× Penicillin-Streptonycin-L-Glutamine (Corning, New York, NY, Cat #30-009-CI). Cells were passaged 2 times per week to maintain sub-confluent densities and were used for experiments at passage 5-20. Respiratory syncytial virus recombinant with luciferase (RSV-Luc5) (≥1 ×107 TCID50/ml) was purchased from Microbiologics (Saint Cloud, MN). Viral replication was determined in HEp-2 cells in the following manner.
(§1) Compounds are prepared in 100% DMSO in 384-well polypropylene plates (Greiner, Monroe, NC, Cat #784201) with 8 compounds per plate in grouped replicates of 4 at 10 serially diluted concentrations (1:3). The serially diluted compounds were transferred to low dead volume Echo plates (Labcyte, Sunnyvale, CA, Cat #LP-0200).
The test compounds were spotted to 384-well assay plates (Greiner, Monroe, NC, Cat#781091) at 200 nL per well. HEp-2 cells were harvested and suspended in DMEM (supplemented with 10% FBS and 1× Penicillin-Streptonycin-L-Glutamine) and seeded to the pre-spotted assay plates at 4,000 cells per well in 30 μL. RSV-Luc5 viruses were diluted in DMEM (supplemented with 10% FBS and 1× Penicillin-Streptomycin-L-Glutamine) at 200,000 Infectious Units (IU) per mL and 10 μL per well was added to the assay plates containing cells and compounds, for an MOI=0.5. The assay plates were incubated for 3 days at 37° C. and 5% CO2. At the end of incubation, One-Glo reagent (Promega, Madison, WI, Cat #E6120) was prepared. The assay plates and One-Glo reagent were equilibrated to room temperature for at least 15 minutes. 40 μL per well of One-Glo reagent was added and the plates were incubated at room temp for 15 minutes before reading the luminescence signal on an EnVision multimode plate reader (Perkin Elmer, Waltham, MA). Remdesivir was used as positive control and DMSO was used as negative control. Values were normalized to the positive and negative controls (as 0% and 100% replication, respectively) and data was fitted using non-linear regression analysis by Gilead's dose response tool. The EC50 value for each compound was then determined as the concentration reducing the viral replication by 50%.

[2] = system: Human Rhinovirus 1B (HRV1B) in H1-HeLa cells; assay: H1-HeLa HRV-CTG 384-well Assay (Ex. Y), HRV1B; type: cell-based; details: Rhinovirus A, 96 h, read-out: EC50 H1-HeLa_HRV1B_HRV-CTG 384-well Assay (per Ex. Y)
Description: Example Y: H1-HeLa HRV-CTG 384-well Assay
H1-Hela cell line (ATCC, Manassas, VA, Cat #CRL-1958) was maintained in Dulbecco's […] (DMEM) (Corning, New York, NY, Cat #15-018CM) supplemented with 10% fetal bovine serum (FBS) (Hyclone, Logan, UT, Cat #SH30071-03), and 1× Penicillin-Streptomycin-L-Glutamine (Corning, New York, NY, Cat #30-009-CI). Cells were passaged 2 times per week to maintain sub-confluent densities and were used for experiments at passage 5-30. The Human Rhinovirus 1B (HRV1B) (ATCC, Manassas, VA, Cat #VR-1645) , Human Rhinovirus 14 (HRV14) (ATCC, Manassas, VA, Cat #VR-284), and Human Rhinovirus 16 (HRV16) (ATCC, Manassas, VA, Cat #BR-283) was obtained through ATCC. Viral infection was monitored by determining viability of H1-HeLa cells as described below.
as §1, with “Test molecules” for “Compounds”
The test compounds were spotted to 384-well assay plates (Greiner, Monroe, NC, Cat#781091) at 200 nL per well using an Echo acoustic dispenser (Labcyte, Sunnyvale, CA). H1-HeLa cells were harvested and suspended in DMEM (supplemented with 2% FBS and 1× Penicillin-Streptomycin-L-Glutamine) and seeded to the pre-spotted assay plates at 5,000 cells per well in 30 μL. HRV1B, HRV14, and HRV16 was diluted in DMEM (supplemented with 2% FBS and 1× Penicillin-Streptomycin-L-Glutamine) at 97.1 million Infectious Units (IU) per mL, 151 million IU per mL and 221 million IU per mL respectively. 10 μL of virus per well was added to the assay plates containing cells and compounds, for an MOI of 0.5, 1.0, and 0.25 respectively. The assay plates were incubated for 4 days at 37° C. and 5% CO2. At the end of incubation, Celltiter-Glo (Promega, Madison, WI, Cat #(Ga7573) was prepared. The assay plates and Celltiter-Glo reagent were equilibrated to room temperature for at least 15 minutes. 40 μL per well of Celltiter-Glo reagent was added and the plates were incubated at room temperature for 15 minutes before reading the luminescence signal on an EnVision multimode plate reader (Perkin Elmer, Waltham, MA). Rupintrivir was used as positive control and DMSO was used as negative control. Values were normalized to the positive and negative controls (as 0% and 100% replication, respectively) and data was fitted using non-linear regression analysis by Gilead's dose response tool. The EC50 value for each compound was defined as the concentration reducing viral replication by 50%.

[3] = H1-HeLa cells, HRV1B MOI 0.5, 4 days, Celltiter-Glo

SMILES | EC50 [1] | EC50 [2, 3] | EC50 ([2]; HRV1B, H1-HeLa)
CC(C)(C)C(=O)OC[C@@]1(C#N)O[C@@H](c2ccc3c(N)ncnn23)[C@H](O)[C@@H]1O [Compound 10, ((2R,3S,4R,5S)-5-(4-aminopyrrolo[2,1-f][1,2,4]triazin-7-yl)-2-cyano-3,4-dihydroxytetrahydrofuran-2-yl)methyl pivalate] | 21.8 µM | 9.77 µM | 
Cc1ccc(C(=O)OC[C@@]2(C#N)O[C@@H](c3ccc4c(N)ncnn34)[C@H](O)[C@@H]2O)cc1 [Compound 14, ((2R,3S,4R,5S)-5-(4-aminopyrrolo[2,1-f][1,2,4]triazin-7-yl)-2-cyano-3,4-dihydroxytetrahydrofuran-2-yl)methyl 4-methylbenzoate] | 22 µM | 9.8 µM | 
N#C[C@]1(COC(=O)C2CC2)O[C@@H](c2ccc3c(N)ncnn23)[C@H](O)[C@@H]1O [Compound 7, ((2R,3S,4R,5S)-5-(4-aminopyrrolo[2,1-f][1,2,4]triazin-7-yl)-2-cyano-3,4-dihydroxytetrahydrofuran-2-yl)methyl cyclopropanecarboxylate] | 50 µM | 11.4 µM | 
N#C[C@]1(COC(=O)C2CC3(CCC3)C2)O[C@@H](c2ccc3c(N)ncnn23)[C@H](O)[C@@H]1O [Compound 32, ((2R,3S,4R,5S)-5-(4-aminopyrrolo[2,1-f][1,2,4]triazin-7-yl)-2-cyano-3,4-dihydroxytetrahydrofuran-2-yl)methyl spiro[3.3]heptane-2-carboxylate] | 16.4 µM | 3.18 µM | 
CCC(CC)C(=O)OC[C@@]1(C#N)O[C@@H](c2ccc3c(N)ncnn23)[C@H](O)[C@@H]1O [Compound 9, ((2R,3S,4R,5S)-5-(4-aminopyrrolo[2,1-f][1,2,4]triazin-7-yl)-2-cyano-3,4-dihydroxytetrahydrofuran-2-yl)methyl 2-ethylbutanoate] | 28.9 µM | 21.6 µM | 
CC(C)(C)CC(=O)OC[C@@]1(C#N)O[C@@H](c2ccc3c(N)ncnn23)[C@H](O)[C@@H]1O [Compound 13, ((2R,3S,4R,5S)-5-(4-aminopyrrolo[2,1-f][1,2,4]triazin-7-yl)-2-cyano-3,4-dihydroxytetrahydrofuran-2-yl)methyl 3,3-dimethylbutanoate] | 50 µM | 50 µM | 
N#C[C@]1(COC(=O)Cc2ccccc2)O[C@@H](c2ccc3c(N)ncnn23)[C@H](O)[C@@H]1O [Compound 38, ((2R,3S,4R,5S)-5-(4-aminopyrrolo[2,1-f][1,2,4]triazin-7-yl)-2-cyano-3,4-dihydroxytetrahydrofuran-2-yl)methyl 2-phenylacetate] | 18.9 µM |  | 3.12 µM
CCC(C)(C)C(=O)OC[C@@]1(C#N)O[C@@H](c2ccc3c(N)ncnn23)[C@H](O)[C@@H]1O [Compound 35, ((2R,3S,4R,5S)-5-(4-aminopyrrolo[2,1-f][1,2,4]triazin-7-yl)-2-cyano-3,4-dihydroxytetrahydrofuran-2-yl)methyl 2,2-dimethylbutanoate] | 24.4 µM | 19.2 µM | 
CC(=O)OC[C@@]1(C#N)O[C@@H](c2ccc3c(N)ncnn23)[C@H](O)[C@@H]1O [Compound 4, ((2R,3S,4R,5S)-5-(4-aminopyrrolo[2,1-f][1,2,4]triazin-7-yl)-2-cyano-3,4-dihydroxytetrahydrofuran-2-yl)methyl acetate] | 15.7 µM | 6.38 µM | 
CC1(C(=O)OC[C@@]2(C#N)O[C@@H](c3ccc4c(N)ncnn34)[C@H](O)[C@@H]2O)CC1 [Compound 15, ((2R,3S,4R,5S)-5-(4-aminopyrrolo[2,1-f][1,2,4]triazin-7-yl)-2-cyano-3,4-dihydroxytetrahydrofuran-2-yl)methyl 1-methylcyclopropane-1-carboxylate] | 31.6 µM | 22.8 µM | 
CCC(C)(C)CC(=O)OC[C@@]1(C#N)O[C@@H](c2ccc3c(N)ncnn23)[C@H](O)[C@@H]1O [Compound 27, ((2R,3S,4R,5S)-5-(4-aminopyrrolo[2,1-f][1,2,4]triazin-7-yl)-2-cyano-3,4-dihydroxytetrahydrofuran-2-yl)methyl 3,3-dimethylpentanoate] | 12.3 µM | 50 µM | 
CC(C)C(=O)O[C@H]1[C@H](c2ccc3c(N)ncnn23)O[C@](C#N)(COC(=O)c2ccccc2)[C@H]1O [Compound 22, ((2R,3S,4R,5S)-5-(4-aminopyrrolo[2,1-f][1,2,4]triazin-7-yl)-2-cyano-3-hydroxy-4-(isobutyryloxy)tetrahydrofuran-2-yl)methyl benzoate] | 32.1 µM | 12.8 µM | 
CC(C)C(=O)Nc1ncnn2c([C@@H]3O[C@](C#N)(CO)[C@@H](O)[C@H]3O)ccc12 [Compound 30, N-(7-((2S,3R,4S,5R)-5-cyano-3,4-dihydroxy-5-(hydroxymethyl)tetrahydrofuran-2-yl)pyrrolo[2,1-f][1,2,4]triazin-4-yl)isobutyramide] | > 50 µM | 27.5 µM | 
CC[C@@H](C)C(=O)OC[C@@]1(C#N)O[C@@H](c2ccc3c(N)ncnn23)[C@H](O)[C@@H]1O [Compound 37, ((2R,3S,4R,5S)-5-(4-aminopyrrolo[2,1-f][1,2,4]triazin-7-yl)-2-cyano-3,4-dihydroxytetrahydrofuran-2-yl)methyl (R)-2-methylbutanoate] | 14.8 µM | 5.71 µM | 
CCC(CC)C(=O)Nc1ncnn2c([C@@H]3O[C@](C#N)(COC(=O)C(CC)CC)[C@@H](O)[C@H]3O)ccc12 [Compound 11, ((2R,3S,4R,5S)-2-cyano-5-(4-(2-ethylbutanamido)pyrrolo[2,1-f][1,2,4]triazin-7-yl)-3,4-dihydroxytetrahydrofuran-2-yl)methyl 2-ethylbutanoate] | 41.5 µM | 50 µM | 
CC(C)CC(=O)OC[C@@]1(C#N)O[C@@H](c2ccc3c(N)ncnn23)[C@H](O)[C@@H]1O [Compound 3, ((2R,3S,4R,5S)-5-(4-aminopyrrolo[2,1-f][1,2,4]triazin-7-yl)-2-cyano-3,4-dihydroxytetrahydrofuran-2-yl)methyl 3-methylbutanoate] | 26.4 µM | 8.84 µM | 
